Measurements reported in patent US4021431A, “3-(Piperidino-lower-alkyl)-indoles” (Sterling Drug Inc., priority 1975, dated 1977).
Where a name gives a salt, the structure may show the parent alone.

test system: adjuvant-induced arthritis; assay: inhibition of adjuvant-induced arthritis test (AA); conditions: Rattus norvegicus, po, read-out: AA (% Inhib.)
Method: The inhibition of adjuvant-induced arthritis test used in the evaluation of the instant compounds is described briefly as follows: Adult male Sprague-Dawley strain rats weighing 200-230 grams were used; 0.1 ml. of a 0.6% suspension of adjuvant (M. Butyricum, Difco Laboratories, Detroit, Michigan) in heavy mineral oil was injected into the plantar tissue of the left hind paw. A negative control group was injected with mineral oil only. Symptoms of polyarthritis began to appear approximately ten days after adjuvant administration, and beginning on the ninth day after adjuvant injection, the animals were given, by gavage, twelve daily medications of the test compounds suspended in 1% gum tragacanth in a volume of 1 ml./100 g. of body weight. Both the negative control and adjuvant injected control animals received the vehicle only. Food and water are permitted ad libitum. Twenty-four hours after the last medication, the animals were weighed, the degree of arthritic involvement (that is the increase in foot edema measured plethysmographically as described above), and plasma inflammation units were determined. The results were expressed as percent inhibition calculated from the average differences in total foot volume of both hind paws between the adjuvant injected control and medicated rats, correcting for difference in foot volume of the oil injected negative control group.
Following foot volume measurements, the animals were anesthetized with ether and bled by heart puncture into rubber stoppered, evacuated glass tubes (calibrated to draw 2.7 ml.) containing 0.3 ml. of 0.1M sodium oxalate solution for determination of plasma inflammation units (P.I.U.). The unclotted blood was centrifuged, and 0.1 ml. of the plasma was diluted with 5.0 of 0.9% sodium chloride solution. The P.I.U.'s are direct spectrophotometer optical density readings expressed as the difference between preheated and heated plasma, corrected for 1:50 dilution. The results were expressed as percent inhibition calculated from the difference between the average plasma uncorrected for average plasma inflammation units of oil-injected negative control rats.
All data were obtained on oral administration.

SMILES | inhibition in vivo at 0.08 µM, 0.08 µmol/kg [%] | inhibition in vivo at 0.1 µM, 0.1 µmol/kg [%] | inhibition in vivo at 0.18 µM, 0.18 µmol/kg [%] | inhibition in vivo at 0.02 µM, 0.02 µmol/kg [%] | inhibition in vivo at 0.324 µM, 0.324 µmol/kg [%] | inhibition in vivo at 0.162 µM, 0.162 µmol/kg [%] | inhibition in vivo at 0.01 µM, 0.01 µmol/kg [%] | inhibition in vivo at 0.04 µM, 0.04 µmol/kg [%] | inhibition in vivo at 0.16 µM, 0.16 µmol/kg [%] | inhibition in vivo at 0.005 µM, 0.005 µmol/kg [%]
COc1ccc2c(c1)c(CCN(Cc1ccccc1)C(C)(C)C)c(C)n2C(=O)c1ccccc1 [72 (N-Benzyl), 1-benzoyl-3-[2-(N-benzyl-N-t-butylamino)ethyl]-5-methoxy-2-methylindole hydrochloride] | 62 |  |  |  |  |  |  |  |  | 
COc1ccc2c(c1)c(CCN1CCCCC1CC1CCCCC1)c(C)n2C(=O)c1ccccc1 (centres unmarked) [Example 1, 1-Benzoyl-3-[2-(2-cyclohexylmethylpiperidino)ethyl]-5-methoxy-2-methylindole] |  | 79 |  |  |  |  |  |  |  | 
COc1ccc2c(c1)c(CCN1CCCCC1CC1CCCCC1)c(C)n2C(=O)c1ccc(C)cc1 (centres unmarked) [Example 2] | 37 |  |  |  |  |  |  |  |  | 
COc1ccc(C(=O)n2c(C)c(CCN3CCCCC3CC3CCCCC3)c3cc(OC)ccc32)cc1 (centres unmarked) [Example 3] |  |  | 64 |  |  |  |  |  |  | 
COc1ccc2c(c1)c(CCN1CCCCC1CC1CCCCC1)c(C)n2C(=O)c1ccc(Cl)cc1Cl (centres unmarked) [Example 4] |  |  |  | 28 | 80 |  |  |  |  | 
COc1ccc2c(c1)c(CCN1CCCCC1CC1CCCCC1)c(C)n2C(=O)c1ccc(Cl)c(Cl)c1 (centres unmarked) [Example 5] | 0 |  |  |  |  |  |  |  |  | 
COc1ccc2c(c1)c(CCN1CCCCC1CC1CCCCC1)c(C)n2C(=O)c1ccc(F)cc1 (centres unmarked) [Example 6] | 84 |  |  | 66 |  |  |  |  |  | 
COc1ccc2c(c1)c(CCN1CCCCC1CC1CCCCC1)c(C)n2C(=O)c1ccccc1Br (centres unmarked) [Example 7] | 29 |  |  |  |  |  |  |  |  | 
COc1ccc2c(c1)c(CCN1CCCCC1CC1CCCCC1)c(C)n2C(=O)C=Cc1ccccc1 (centres unmarked) [Example 8] | 30 |  |  |  |  |  |  |  |  | 
COc1ccc2c(c1)c(CCN1CCCCC1CC1CCCCC1)c(C)n2C(=O)c1ccccc1F (centres unmarked) [Example 9] |  |  |  |  |  | 72 |  |  |  | 
COc1ccc2c(c1)c(CCN1CCCCC1CC1CCCCC1)c(C)n2C(=O)c1cccs1 (centres unmarked) [Example 10] |  |  |  |  | 63 |  |  |  |  | 
COc1ccc2c(c1)c(CCN1CCCCC1CC1CCCCC1)c(C)n2C(=O)c1ccco1 (centres unmarked) [Example 11] |  |  |  |  | 50 |  |  |  |  | 
COc1ccc2c(c1)c(CCN1CCCCC1CC1CCCCC1)c(C)n2C(=O)c1cccc(F)c1 (centres unmarked) [Example 12] | 17 |  |  |  |  |  |  |  |  | 
Cc1c(CCN2CCCCC2CC2CCCCC2)c2ccccc2n1C(=O)c1ccccc1 (centres unmarked) [Example 48] | 33 |  |  |  |  |  |  |  |  | 
Cc1c(CCN2CCCCC2CC2CCCCC2)c2cc(F)cc(F)c2n1C(=O)c1ccccc1 (centres unmarked) [Example 50] |  |  |  |  |  | 87 |  |  |  | 
Cc1c(CCN2CCCCC2CC2CCCCC2)c2cc(F)ccc2n1C(=O)c1ccccc1 (centres unmarked) [Example 58] | 51 |  |  |  |  |  |  |  |  | 
COc1ccc2c(c1)c(CCN1CCCCC1C1CCCCC1)c(C)n2C(=O)c1ccccc1 (centres unmarked) [Example 62, 1-benzoyl-3-[2-(2-cyclohexylpiperidino)ethyl]-5-methoxy-2-methylindole hydrochloride] |  |  |  |  | 107 |  |  |  |  | 
COc1ccc2c(c1)c(CCN1CCCCC1C1CCCCC1)c(C)n2C(=O)c1ccc(F)cc1 (centres unmarked) [Example 63, 1-(4-fluorobenzoyl)-3-[2-(2-cyclohexylpiperidino)ethyl]-5-methoxy-2-methylindole hydrochloride] | 84 |  |  |  |  |  |  |  |  | 
COc1ccc2c(c1)c(CCN1CCCCC1CCC1CCCCC1)c(C)n2C(=O)c1ccccc1 (centres unmarked) [Example 64, 1-benzoyl-3-{2-[2-(2-cyclohexylethyl)piperidino]ethyl}-5-methoxy-2-methylindole] |  |  |  |  |  |  | 36 | 70 | 100 | 
COc1ccc2c(c1)c(CCN1CCCCC1CCC1CCCCC1)c(C)n2C(=O)c1ccc(F)cc1 (centres unmarked) [Example 65, 1-(4-fluorobenzoyl)-3-{2-[2-(2-cyclohexylethyl)piperidino]ethyl}-5-methoxy-2-methylindole hydrochloride] | 85 |  |  |  |  |  |  |  |  | 
COc1ccc2c(c1)c(CCN1CCCCC1CC1CCCCC1)cn2C(=O)c1ccccc1 (centres unmarked) [Example 67] | 25 |  |  |  |  |  |  |  |  | 
COc1ccc2c(c1)c(CCN(C(C)C)C(C)C)c(C)n2C(=O)c1ccccc1 [Example 73, 1-benzoyl-3-[2-(diisopropylamino)ethyl]-5-methoxy-2-methylindole hydrochloride] | 53 |  |  | 0 |  |  |  |  |  | 0
COc1ccc2c(c1)c(CCN1CCCCC1CC1CCCCC1)c(C)n2C(=O)c1ccc(Cl)cc1 (centres unmarked) [Example 84, 1-(4-chlorobenzoyl)-3-[2-(2-cyclohexylmethylpiperidino)ethyl]-5-methoxy-2-methylindole] |  |  |  |  |  |  | 36 | 70 | 100 | 
COc1ccc2c(c1)c(CCN(Cc1ccccc1)C(C)(C)C)c(C)n2C(=O)c1ccc(F)cc1 [Example 85, 1-(4-fluorobenzoyl)-3-[2-(N-benzyl-N-t-butylamino)ethyl]-5-methoxy-2-methylindole hydrochloride] | 104 |  |  | 11 |  |  |  |  |  | 0
COc1ccc2c(c1)c(CCNC(C)(C)C)c(C)n2C(=O)c1ccc(F)cc1.Cl [Example 86, 1-(4-fluorobenzoyl)-3-[2-(N-t-butylamino)ethyl]-5-methoxy-2-methylindole hydrochloride] |  |  |  | 71 |  |  |  |  |  | 13
COc1ccc2c(c1)c(CCN(C(C)C)C(C)C)c(C)n2C(=O)c1ccc(F)cc1 [Example 87, 1-(4-fluorobenzoyl)-3-[2-(diisopropylamino)ethyl]-5-methoxy-2-methylindolehydrochloride] | 98 |  |  | 73 |  |  |  |  |  | 43
COc1ccc2c(c1)c(CCN1CCC(CCC3CCCCC3)CC1)c(C)n2C(=O)c1ccc(F)cc1 [Example 88, 1-(4-fluorobenzoyl)-3-{2-[4-(2-cyclohexylethyl)piperidino]ethyl}-5-methoxy-2-methylindole hydrochloride] | 75 |  |  |  |  |  |  |  |  | 
COc1ccc2c(c1)c(CCN1CCC(CCC3CCCCC3)CC1)c(C)n2C(=O)c1ccccc1 [Example 89, 1-benzoyl-3-{2-[4-(2-cyclohexylethyl)piperidino]ethyl}-5-methoxy-2-methylindole hydrochloride] | 89 |  |  |  |  |  |  |  |  | 
COc1ccc2c(c1)c(CCN1CCC(C3CCCCC3)CC1)c(C)n2C(=O)c1ccc(F)cc1 [Example 90, 1-(4-fluorobenzoyl)-3-[2-(4-cyclohexylpiperidino)ethyl]-5-methoxy-2-methylindole hydrochloride] | 77 |  |  |  |  |  |  |  |  | 

same assay, conditions: oral, twelve daily medications, 0.08 μM/kg.

SMILES | AA: toxicity noted in place of % inhibition
COc1ccc2c(c1)c(CCNC(C)(C)C)c(C)n2C(=O)c1ccc(F)cc1.Cl [Example 86, 1-(4-fluorobenzoyl)-3-[2-(N-t-butylamino)ethyl]-5-methoxy-2-methylindole hydrochloride] | Toxic

same assay, conditions: oral, twelve daily medications, 0.16 μM/kg.

SMILES | AA: toxicity noted in place of % inhibition
COc1ccc2c(c1)c(CCNC(C)(C)C)c(C)n2C(=O)c1ccccc1.Cl [72 (N-H), 1-benzoyl-3-[2-(N-t-butylamino)ethyl]-5-methoxy-2-methylindole hydrochloride] | Toxic
